Data reported in patent US5424442A, “Water-soluble methine compounds useful in photographic silver halide emulsion containing the same” (Fuji Photo Film Co., Ltd., priority 1990, dated 1995).
“And” between values parts separate entries of the source, which are not always exact repeats. Identical values can stand only once. Like-named read-outs stand apart in the source and are kept apart here. Each block holds one molecule with its values, some of them ahead of it.

Assay: Solubility in solvents (dissolution in incubator, filtration through microfilter, visible absorption)
Type: physicochemical
Conditions: for Solubility in Water / Solubility in H2O / Solubility in MeOH: 720 min
Description: The solubility of some of the compounds within formula (I) was accurately measured.
The measurement of solubility was made in the following manner.

[1] = water, Table 3, read-out: Solubility in Water
[2] = MeOH, 37° C., 12 hours, Table 2
[3] = MeOH, 37° C., 12 hours, Table 1
[4] = water, H2O, 37° C., 12 hours, Table 2, read-out: Solubility in H2O

SMILES: CC[n+]1c(C=c2sc(=CC=C3C=CN(C)C=C3)c(=O)n2C)sc2ccccc21 [Compound 98]
solubility at 12 h [1]: 6800 µg/mL

SMILES: CCn1c(=Cc2oc3ccccc3[n+]2CC)sc(=C2Sc3ccccc3N2C)c1=O [Compound D, reference compound]
Solubility in H2O (H2O, 37° C., 12 hours, Table 2): 200 µg/mL | Solubility in MeOH [2]: 2000 µg/mL

SMILES: CCN1C(C)=CSC1=CC=c1sc(=Cc2sc3ccccc3[n+]2CC)n(CC)c1=O [Compound A, reference compound]
Solubility in H2O (H2O, 37° C., 12 hours): 0.17 mM | Solubility in H2O (H2O, 37° C., 12 hours, Table 1): 100 µg/mL | Solubility in MeOH (MeOH, 37° C., 12 hours): 1.11 mM | Solubility in MeOH [3]: 650 µg/mL | solubility at 12 h (dmso, organic solvent or mixture, DMSO, 37° C., 12 hours, read-out: Solubility in DMSO): 20000 µM and 11700 µg/mL

SMILES: CCn1c(=Cc2sc3ccccc3[n+]2CC)sc(=C2C=Cc3ccccc3N2C)c1=O [Compound 147]
solubility at 12 h [1]: 8100 µg/mL

SMILES: CCn1c(=C2CCC[n+]3c2sc2ccccc23)sc(=C2Sc3ccccc3N2C)c1=O [Compound 156]
solubility at 12 h [1]: 3700 µg/mL

SMILES: CCn1c(=Cc2sc3cc(C)c(C)cc3[n+]2CC)sc(=C2Sc3ccccc3N2C)c1=O [Compound 110]
Solubility in MeOH [2]: > 10000 µg/mL | solubility at 12 h [4]: 1700 µg/mL

SMILES: CCn1c(=Cc2oc3ccccc3[n+]2CC)sc(=C2Sc3ccccc3N2C)c1=O [Compound 128]
Solubility in H2O (H2O, 37° C., 12 hours, Table 2): > 10000 µg/mL | Solubility in MeOH [2]: > 10000 µg/mL

SMILES: CN1C(=CC=c2sc(=Cc3sc4ccccc4[n+]3C)n(C)c2=O)Sc2ccccc21 [Compound 9]
Solubility in Water (water, Table 3): 3800 µg/mL

SMILES: CN1C(=CC=c2sc(=Cc3sc4ccccc4[n+]3C)n(C)c2=O)Sc2ccccc21 [Compound 10]
Solubility in Water (water, Table 3): > 10000 µg/mL

SMILES: CCN1C(C)=CSC1=CC=c1sc(=Cc2sc3ccccc3[n+]2CC)n(CC)c1=O [Compound 53]
Solubility in H2O (H2O, 37° C., 12 hours): > 37 mM | Solubility in H2O (H2O, 37° C., 12 hours, Table 1): > 19000 µg/mL | Solubility in MeOH (MeOH, 37° C., 12 hours): > 33 mM | Solubility in MeOH [3]: > 17000 µg/mL

SMILES: CN1C(=CC=c2sc(=Cc3sc4ccccc4[n+]3C)n(C)c2=O)Sc2ccccc21 [Compound 7]
Solubility in Water (water, Table 3): 6200 µg/mL

SMILES: CCN1C(=CC=c2sc(=CC3=CC(=Cc4sc5cc(C)c(C)cc5[n+]4CC)Oc4ccccc43)n(CC)c2=O)Sc2ccccc21 [Compound 153]
solubility at 12 h [1]: 1400 µg/mL

SMILES: CCN1C(=CC=c2sc(=Cc3cc[n+](C)c4ccccc34)n(C)c2=O)N(CC)c2ccccc21 [Compound 104]
solubility at 12 h [1]: 4100 µg/mL

SMILES: CN1C(=c2sc(=Cc3cc[n+](C)cc3)n(C)c2=O)Sc2ccccc21 [Compound 145]
solubility at 12 h [1]: 8800 µg/mL

Results, then the molecule that gave them:

Solubility in Water (water, Table 3): 7100 µg/mL
SMILES: CCN1C(=CC=c2sc(=Cc3sc4c5ccccc5ccc4[n+]3C)n(CC)c2=O)Sc2ccc3ccccc3c21 [Compound 34]

Solubility in Water (water, Table 3): 4800 µg/mL
SMILES: CCN1C(=CC=c2sc(=Cc3sc4c5ccccc5ccc4[n+]3C)n(CC)c2=O)Sc2ccc3ccccc3c21 [Compound 36]

Solubility in Water (water, Table 3): > 10000 µg/mL
SMILES: CCN1C(=CC=c2sc(=Cc3sc4c5ccccc5ccc4[n+]3C)n(CC)c2=O)Sc2ccc3ccccc3c21 [Compound 35]

Solubility in MeOH (MeOH, 37° C., 12 hours): 0.03 mM | Solubility in MeOH [3]: 30 µg/mL
SMILES: CCN1C(=CC=c2sc(=Cc3sc4c5ccccc5ccc4[n+]3CC)n(CC)c2=O)Sc2ccc3ccccc3c21 [Compound E, reference compound]

Solubility in MeOH (MeOH, 37° C., 12 hours): > 25 mM | Solubility in MeOH [3]: > 16000 µg/mL | solubility at 12 h (water, H2O, 37° C., 12 hours, Table 1, read-out: Solubility in H2O): 6560 µg/mL | solubility at 12 h (water, H2O, 37° C., 12 hours, read-out: Solubility in H2O): 10.1 mM
SMILES: CCN1C(=CC=c2sc(=Cc3sc4c5ccccc5ccc4[n+]3CC)n(CC)c2=O)Sc2ccc3ccccc3c21 [Compound 25]

solubility at 12 h (methanol, organic solvent or mixture, MeOH, 37° C., 12 hours, Table 2, read-out: Solubility in MeOH): 2800 µg/mL | solubility at 12 h [4]: 300 µg/mL
SMILES: CCN1C(=CC=c2sc(=Cc3cc[n+](CC)c4ccccc34)n(CC)c2=O)C=Cc2ccccc21 [reference compound]

solubility at 12 h [1]: 5700 µg/mL
SMILES: CCn1c(=Cc2sc3ccccc3[n+]2C)sc(=C2Oc3ccc4ccccc4c3N2C)c1=O [Compound 127]

Solubility in Water (water, Table 3): 5300 µg/mL
SMILES: CCN1C(=CC=c2sc(=Cc3sc4c5ccccc5ccc4[n+]3C)n(CC)c2=O)Sc2ccc3ccccc3c21 [Compound 33]

solubility at 12 h [1]: 7200 µg/mL
SMILES: CCN1C(=CC=c2sc(=Cc3sc4ccccc4[n+]3CC)n(CC)c2=O)Sc2ccc(Cl)cc21 [Compound 3]

solubility at 12 h [1]: > 10000 µg/mL
SMILES: CCn1c(=Cc2sc3c4ccccc4ccc3[n+]2CC)sc(=CC=C2SCCN2C)c1=O [Compound 45]
